Test results from ChEMBL document CHEMBL5120816, “Abietane diterpenes from Abies spectabilis and their anti-pancreatic cancer activity against the MIA PaCa-2 cell line” (Bioorg Med Chem Lett, 2022).
Active and inactive are the calls of the source. The calls are words filed in the database; no cut-off is given here.

Legend:
[1] = tested on: MIA PaCa-2; assay: Preferential cytotoxicity against human MIA PaCa-2 cells in nutrient-deprived medium; type: functional
[2] = Toxicity against human MIA PaCa-2 cells in nutrient-rich medium (DMEM); type: cell-based
[3] = tested on: MIA PaCa-2; assay: Inhibition of cell migration of human MIA PaCa-2 cells assessed as open area level at 20 uM incubated for 48 hrs in nutrient-deprived medium by quantitative real-time cancer cell migration assay (reference value: 8.9%); type: functional; parameters: scale not given: the % may be the effect or the level left
[4] = tested on: MIA PaCa-2; assay: Down regulation of autophagy marker expression in human MIA PaCa-2 cells assessed as reduction in LC3-I expression at 10 to 20 uM in nutrient-deprived medium by Western blot analysis; type: functional, cell-based; settings: dose 10-20 µM
[5] = tested on: MIA PaCa-2; assay: Induction of apoptosis in human MIA PaCa-2 cells assessed as down regulation of caspase-3 expression at 10 to 20 uM incubated for 24 hrs in nutrient-deprived medium by Western blot analysis; type: functional, cell-based; settings: dose 10-20 µM
[6] = tested on: MIA PaCa-2; assay: Induction of cellular morphology changes in human MIA PaCa-2 cells assessed as rounding of cells and membrane rupture at 6.25 to 10 uM incubated for 24 hrs in nutrient-deprived medium by ethidium bromide-acridine orange double staining based EVOS FL digital microscopy"; type: functional, cell-based; settings: dose 6.25-10 µM, DDE = dose-dependent effect
[7] = target: Serine/threonine-protein kinase mTOR (Homo sapiens) (UniProt P42345); assay: Inhibition of mTOR S2481 phosphorylation in human MIA PaCa-2 cells at 10 to 20 uM incubated for 6 hrs in nutrient-deprived medium by Western blot analysis; type: cell-based; settings: dose 10-20 µM
[8] = tested on: MIA PaCa-2; assay: Induction of cell death in human MIA PaCa-2 cells assessed as rounding of cells and membrane rupture at 5 uM incubated for 24 hrs in nutrient-deprived medium by ethidium bromide-acridine orange double staining based EVOS FL digital microscopy"; type: functional
[9] = tested on: MIA PaCa-2; assay: Inhibition of cell migration of human MIA PaCa-2 cells assessed as open area level at 20 uM incubated for 24 hrs in nutrient-deprived medium by quantitative real-time cancer cell migration assay (reference value: 100%); type: functional; parameters: scale not given: the % may be the effect or the level left
[10] = tested on: MIA PaCa-2; assay: Induction of apoptosis in human MIA PaCa-2 cells assessed as down regulation of Bcl2 expression at 10 to 20 uM incubated for 24 hrs in nutrient-deprived medium by Western blot analysis; type: functional, cell-based; settings: dose 10-20 µM
[11] = tested on: MIA PaCa-2; assay: Down regulation of autophagy marker expression in human MIA PaCa-2 cells assessed as reduction in Atg7 expression at 10 to 20 uM in nutrient-deprived medium by Western blot analysis; type: functional, cell-based; settings: dose 10-20 µM
[12] = tested on: MIA PaCa-2; assay: Down regulation of autophagy marker expression in human MIA PaCa-2 cells assessed as reduction in Atg12 expression at 10 to 20 uM in nutrient-deprived medium by Western blot analysis; type: functional, cell-based; settings: dose 10-20 µM
[13] = tested on: MIA PaCa-2; assay: […] in human MIA PaCa-2 cells assessed as membrane blebbing , cell rupture and leakage of intracellular components into the medium at 20 uM incubated for 24 hrs in nutrient-deprived medium by Hoechst 33342 staining based assay"; type: functional
[14] = tested on: MIA PaCa-2; assay: Down regulation of autophagy marker expression in human MIA PaCa-2 cells assessed as reduction in LC3-II expression at 10 to 20 uM in nutrient-deprived medium by Western blot analysis; type: functional, cell-based; settings: dose 10-20 µM
[15] = tested on: MIA PaCa-2; assay: Down regulation of autophagy marker expression in human MIA PaCa-2 cells assessed as reduction in Atg5 expression at 10 to 20 uM in nutrient-deprived medium by Western blot analysis; type: functional, cell-based; settings: dose 10-20 µM
[16] = Effect on total AKt protein level in human MIA PaCa-2 cells at 10 to 20 uM incubated for 6 hrs in nutrient-deprived medium by Western blot analysis; type: toxicity, cell-based; settings: mia paca-2, 6 h, dose 10-20 µM
[17] = Effect on total mTOR protein level in human MIA PaCa-2 cells at 10 to 20 uM incubated for 6 hrs in nutrient-deprived medium by Western blot analysis; type: toxicity, cell-based; settings: mia paca-2, 6 h, dose 10-20 µM
[18] = tested on: MIA PaCa-2; assay: Induction of apoptosis in human MIA PaCa-2 cells assessed as down regulation of Bcl-xL expression at 10 to 20 uM incubated for 24 hrs in nutrient-deprived medium by Western blot analysis; type: functional, cell-based; settings: dose 10-20 µM
[19] = tested on: MIA PaCa-2; assay: Inhibition of AKT S473 phosphorylation in human MIA PaCa-2 cells at 10 to 20 uM incubated for 6 hrs in nutrient-deprived medium by Western blot analysis; type: cell-based; settings: dose 10-20 µM

Compound | PC50 [1] [µM] | Activity [2] | further results
CC(C)c1ccc2c(c1)CC[C@H]1[C@](C)(C(=O)O)CCC[C@]21C [DEHYDROABIETIC ACID] | 16.9 | Non-Toxic | 
C[C@]12CCC[C@@](C)(C(=O)O)[C@@H]1CCC1=CC(=O)CC[C@@H]12 | 55.5 | Non-Toxic | 
COc1cc(C[C@H]2C(=O)OC[C@@H]2Cc2ccc(OC)c(OC)c2)ccc1O [ARCTIGENIN] | 0.7 | Non-Toxic | 
CC(C)[C@]1(O)C=C2C(=O)C[C@@H]3[C@](C)(CCC[C@@]3(C)C(=O)O)[C@H]2CC1 | >100 | Non-Toxic | 
C[C@@]1(CO)CCC[C@]2(C)[C@H]3CCC(=O)C=C3CC[C@@H]12 | 35.8 | Non-Toxic | 
CC(C)c1ccc2c(c1)CC[C@H]1[C@](C)(CO)CCC[C@]21C [POMIFERIN A] | 6.6 | Non-Toxic | Activity [3]: 30.8%; Activity [4]: Active; Activity [5]: Active; Activity [6]: Dde; inhibition [7]: Active; Activity [8]: 100%; Activity [9]: 64%; Activity [10]: Active; Activity [11]: Active; Activity [12]: Active; Activity [13]: Active; Activity [14]: Active; Activity [15]: Active; Activity [16]: Non-Toxic; Activity [17]: Non-Toxic; Activity [18]: Active; inhibition [19]: Active
CC(C)[C@@]1(O)C=C2C(=O)C[C@H]3[C@](C)(COC(=O)CCC(=O)O)CCC[C@]3(C)[C@H]2CC1 | 82.9 | Non-Toxic | 
C=C/C(C)=C\C[C@@H]1[C@@]2(C)CCCC(C)(C)[C@@H]2CC(=O)[C@@]1(C)O | 15.2 | Non-Toxic | 
CC(C)[C@@]1(O)C=C2C(=O)C[C@@H]3[C@](C)(CCC[C@@]3(C)C(=O)O)[C@H]2CC1 | 70.7 | Non-Toxic | 
CC(C)C1=CC[C@H]2C(=C1)C(=O)C[C@@H]1[C@]2(C)CCC[C@@]1(C)C(=O)O [ABIESADINE E] | 42.3 | Non-Toxic | 
